What was measured:
[1] = Bioavailability in dog at 0.32 mg/kg, po; assay type: ADME, organism-based, Canis lupus familiaris; settings: in vivo
[2] = Terminal half life in rat plasma at 1.0 mg/kg, iv; assay type: ADME, organism-based; set-up: dose 1 mg/kg, route intravenous; settings: read-out: beta t1/2 (converted)
[3] = Bioavailability in monkey at 0.27 mg/kg, po by cassette assay; assay type: ADME, organism-based, Macaca mulatta; settings: rhesus monkey, in vivo
[4] = Bioavailability in rat at 1.0 mg/kg, po; assay type: ADME, organism-based; settings: in vivo
[5] = Total clearance in rat at 1.0 mg/kg, iv; assay type: ADME, organism-based; set-up: dose 1 mg/kg, route intravenous; settings: in vivo
[6] = target: Beta-1 adrenergic receptor (Homo sapiens, UniProt P08588); assay: Agonist activity at human recombinant beta-1 adrenergic receptor expressed in CHO cells assessed as cAMP accumulation by enzyme immuno assay; assay type: functional, cell-based
[7] = Terminal half life in dog plasma at 0.32 mg/kg, iv; assay type: ADME, organism-based, Canis lupus familiaris; set-up: dose 0.32 mg/kg, route intravenous; settings: read-out: beta t1/2 (converted)
Canis familiaris = species: Canis familiaris; assay: cells; settings: Canis lupus familiaris, 3 h
Description: Inhibition of carbachol-induced increase in intravesical pressure in intraduodenally dosed Beagle dog OAB model for 180 mins

[8] = Total clearance in monkey at 0.27 mg/kg, iv by cassette assay; assay type: ADME, organism-based, Macaca mulatta; set-up: dose 0.27 mg/kg, route intravenous; settings: rhesus monkey, in vivo
[9] = target: Beta-3 adrenergic receptor (Canis lupus familiaris, UniProt O02662); assay: Agonist activity at dog recombinant beta3 adrenergic receptor expressed in CHO cells assessed as cAMP accumulation by enzyme immuno assay; assay type: functional, cell-based
[10] = target: Beta-3 adrenergic receptor (Homo sapiens, UniProt P13945); assay: Agonist activity at human recombinant beta3 adrenergic receptor expressed in CHO cells assessed as cAMP accumulation by enzyme immuno assay; assay type: functional, cell-based
[11] = Total clearance in dog at 0.32 mg/kg, iv; assay type: ADME, organism-based, Canis lupus familiaris; set-up: dose 0.32 mg/kg, route intravenous; settings: in vivo
[12] = Cmax in rat at 1.0 mg/kg, po; assay type: ADME, organism-based; set-up: dose 1 mg/kg, route oral; settings: in vivo
[13] = Protein binding in Beagle dog serum; assay type: ADME, cell-free, Canis lupus familiaris; settings: read-out: PPB (converted)
[14] = Cmax in monkey at 0.27 mg/kg, po by cassette assay; assay type: ADME, organism-based, Macaca mulatta; set-up: dose 0.27 mg/kg, route oral; settings: rhesus monkey, in vivo
[15] = AUC (0 to 24 hrs) in dog at 0.32 mg/kg, po; assay type: ADME, organism-based, Canis lupus familiaris; set-up: time < 24 hr, dose 0.32 mg/kg, route oral; settings: plasma
[16] = AUC (0 to 24 hrs) in monkey at 0.27 mg/kg, po by cassette assay; assay type: ADME, organism-based, Macaca mulatta; set-up: time < 24 hr, dose 0.27 mg/kg, route oral; settings: rhesus monkey, plasma
[17] = Cmax in dog at 0.32 mg/kg, po; assay type: ADME, organism-based, Canis lupus familiaris; set-up: dose 0.32 mg/kg, route oral; settings: in vivo
[18] = target: Beta-2 adrenergic receptor (Homo sapiens, UniProt P07550); assay: Agonist activity at human recombinant beta2 adrenergic receptor expressed in CHO cells assessed as cAMP accumulation by enzyme immuno assay; assay type: functional, cell-based
[19] = AUC (0 to 24 hrs) in rat at 1.0 mg/kg, po; assay type: ADME, organism-based; set-up: time < 24 hr, dose 1 mg/kg, route oral; settings: plasma
[20] = Terminal half life in monkey plasma at 0.27 mg/kg, iv by cassette assay; assay type: ADME, organism-based, Macaca mulatta; set-up: dose 0.27 mg/kg, route intravenous; settings: rhesus monkey, read-out: beta t1/2 (converted)
[21] = Metabolic stability assessed as intrinsic clearance in dog liver microsome in presence of NADPH-generating system; assay type: ADME, Canis lupus familiaris; settings: liver microsomes
[22] = Total clearance in monkey at 0.32 mg/kg, iv by cassette assay; assay type: ADME, organism-based, Macaca mulatta; set-up: dose 0.32 mg/kg, route intravenous; settings: rhesus monkey, in vivo
[23] = Metabolic stability assessed as intrinsic clearance in human liver microsome in presence of NADPH-generating system; assay type: ADME; settings: liver microsomes
[24] = Bioavailability in monkey at 0.32 mg/kg, po by cassette assay; assay type: ADME, organism-based, Macaca mulatta; settings: rhesus monkey, in vivo
[25] = AUC (0 to 24 hrs) in monkey at 0.32 mg/kg, po by cassette assay; assay type: ADME, organism-based, Macaca mulatta; set-up: time < 24 hr, dose 0.32 mg/kg, route oral; settings: rhesus monkey, plasma
[26] = Terminal half life in monkey plasma at 0.32 mg/kg, iv by cassette assay; assay type: ADME, organism-based, Macaca mulatta; set-up: dose 0.32 mg/kg, route intravenous; settings: rhesus monkey, read-out: beta t1/2 (converted)
[27] = Metabolic stability assessed as intrinsic clearance in monkey liver microsome in presence of NADPH-generating system; assay type: ADME, Macaca mulatta; settings: rhesus monkey, liver microsomes
[28] = Metabolic stability assessed as intrinsic clearance in rat liver microsome in presence of NADPH-generating system; assay type: ADME; settings: liver microsomes
[29] = Bioavailability in Beagle dog at 0.1 mg/kg, po by cassette assay; assay type: ADME, organism-based, Canis lupus familiaris; settings: in vivo
[30] = Total clearance in Beagle dog at 0.1 mg/kg, iv by cassette assay; assay type: ADME, organism-based, Canis lupus familiaris; set-up: dose 0.1 mg/kg, route intravenous; settings: in vivo
[31] = Volume of distribution at steady state in Beagle dog at 0.1 mg/kg, iv by cassette assay; assay type: ADME, organism-based, Canis lupus familiaris; set-up: dose 0.1 mg/kg, route intravenous; settings: in vivo, read-out: Vdss
[32] = AUC (0 to 24 hrs) in Beagle dog at 0.1 mg/kg, iv by cassette assay; assay type: ADME, organism-based, Canis lupus familiaris; set-up: time < 24 hr, dose 0.1 mg/kg, route intravenous; settings: plasma
[33] = Terminal half life in Beagle dog at 0.1 mg/kg, iv by cassette assay; assay type: ADME, organism-based, Canis lupus familiaris; set-up: dose 0.1 mg/kg, route intravenous; settings: in vivo, read-out: beta t1/2 (converted)
[34] = AUC (0 to 2 hrs) in Beagle dog at 0.1 mg/kg, po by cassette assay; assay type: ADME, organism-based, Canis lupus familiaris; set-up: time < 2 hr, dose 0.1 mg/kg, route oral; settings: plasma
[35] = Terminal half life in rat plasma at 0.26 mg/kg, iv by cassette assay; assay type: ADME, organism-based; set-up: dose 0.26 mg/kg, route intravenous; settings: read-out: beta t1/2 (converted)
[36] = Bioavailability in rat at 0.26 mg/kg, po by cassette assay; assay type: ADME, organism-based; settings: in vivo
[37] = Terminal half life in monkey plasma at 0.28 mg/kg, iv by cassette assay; assay type: ADME, organism-based, Macaca mulatta; set-up: dose 0.28 mg/kg, route intravenous; settings: rhesus monkey, read-out: beta t1/2 (converted)
[38] = AUC (0 to 24 hrs) in rat at 0.26 mg/kg, po by cassette assay; assay type: ADME, organism-based; set-up: time < 24 hr, dose 0.26 mg/kg, route oral; settings: plasma
[39] = Total clearance in rat at 0.26 mg/kg, iv by cassette assay; assay type: ADME, organism-based; set-up: dose 0.26 mg/kg, route intravenous; settings: in vivo
[40] = AUC (0 to 24 hrs) in monkey at 0.28 mg/kg, po by cassette assay; assay type: ADME, organism-based, Macaca mulatta; set-up: time < 24 hr, dose 0.28 mg/kg, route oral; settings: rhesus monkey, plasma
[41] = Bioavailability in monkey at 0.28 mg/kg, po by cassette assay; assay type: ADME, organism-based, Macaca mulatta; settings: rhesus monkey, in vivo
[42] = Total clearance in monkey at 0.28 mg/kg, iv by cassette assay; assay type: ADME, organism-based, Macaca mulatta; set-up: dose 0.28 mg/kg, route intravenous; settings: rhesus monkey, in vivo
[43] = Cmax in rat at 0.26 mg/kg, po by cassette assay; assay type: ADME, organism-based; set-up: dose 0.26 mg/kg, route oral; settings: in vivo
[44] = Cmax in monkey at 0.28 mg/kg, po by cassette assay; assay type: ADME, organism-based, Macaca mulatta; set-up: dose 0.28 mg/kg, route oral; settings: rhesus monkey, in vivo

Chain of Beta-1 adrenergic receptor (P08588 whole entry): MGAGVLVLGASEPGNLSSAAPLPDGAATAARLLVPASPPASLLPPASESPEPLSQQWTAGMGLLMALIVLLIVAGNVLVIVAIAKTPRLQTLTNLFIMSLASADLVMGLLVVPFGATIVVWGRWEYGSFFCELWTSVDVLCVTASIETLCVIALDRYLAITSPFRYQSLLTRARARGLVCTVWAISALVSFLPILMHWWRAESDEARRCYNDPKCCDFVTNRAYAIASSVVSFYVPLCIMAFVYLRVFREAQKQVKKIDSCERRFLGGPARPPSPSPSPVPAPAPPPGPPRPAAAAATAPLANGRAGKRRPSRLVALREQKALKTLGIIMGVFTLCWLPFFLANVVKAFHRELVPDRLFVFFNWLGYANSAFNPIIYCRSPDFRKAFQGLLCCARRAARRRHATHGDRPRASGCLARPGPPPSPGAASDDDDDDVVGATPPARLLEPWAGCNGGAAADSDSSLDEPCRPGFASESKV
Chain of Beta-2 adrenergic receptor (P07550 whole entry): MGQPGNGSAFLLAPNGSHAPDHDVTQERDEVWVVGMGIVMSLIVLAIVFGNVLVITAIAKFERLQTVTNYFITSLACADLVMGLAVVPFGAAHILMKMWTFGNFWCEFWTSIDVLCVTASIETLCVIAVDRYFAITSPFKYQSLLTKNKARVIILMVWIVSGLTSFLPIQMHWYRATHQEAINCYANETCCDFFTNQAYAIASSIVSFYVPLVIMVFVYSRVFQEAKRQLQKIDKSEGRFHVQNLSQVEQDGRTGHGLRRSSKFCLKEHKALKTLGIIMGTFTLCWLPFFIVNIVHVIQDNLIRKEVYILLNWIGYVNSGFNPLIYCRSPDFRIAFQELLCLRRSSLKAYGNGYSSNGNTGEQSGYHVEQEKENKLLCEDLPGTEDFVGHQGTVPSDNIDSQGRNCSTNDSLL
Chain of Beta-3 adrenergic receptor (Canis lupus familiaris, UniProt O02662) (O02662 whole entry): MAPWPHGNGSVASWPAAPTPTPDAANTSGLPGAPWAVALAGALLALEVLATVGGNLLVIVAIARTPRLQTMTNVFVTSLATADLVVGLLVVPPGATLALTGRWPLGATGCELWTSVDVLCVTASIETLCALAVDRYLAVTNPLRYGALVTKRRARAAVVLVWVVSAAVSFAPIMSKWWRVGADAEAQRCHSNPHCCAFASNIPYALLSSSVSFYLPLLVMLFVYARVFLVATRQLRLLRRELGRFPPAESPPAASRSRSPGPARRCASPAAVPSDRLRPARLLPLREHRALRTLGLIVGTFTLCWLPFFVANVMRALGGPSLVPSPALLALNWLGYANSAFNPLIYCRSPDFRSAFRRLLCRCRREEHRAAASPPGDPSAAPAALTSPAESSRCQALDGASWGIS
Chain of Beta-3 adrenergic receptor (Homo sapiens, UniProt P13945) (P13945 whole entry): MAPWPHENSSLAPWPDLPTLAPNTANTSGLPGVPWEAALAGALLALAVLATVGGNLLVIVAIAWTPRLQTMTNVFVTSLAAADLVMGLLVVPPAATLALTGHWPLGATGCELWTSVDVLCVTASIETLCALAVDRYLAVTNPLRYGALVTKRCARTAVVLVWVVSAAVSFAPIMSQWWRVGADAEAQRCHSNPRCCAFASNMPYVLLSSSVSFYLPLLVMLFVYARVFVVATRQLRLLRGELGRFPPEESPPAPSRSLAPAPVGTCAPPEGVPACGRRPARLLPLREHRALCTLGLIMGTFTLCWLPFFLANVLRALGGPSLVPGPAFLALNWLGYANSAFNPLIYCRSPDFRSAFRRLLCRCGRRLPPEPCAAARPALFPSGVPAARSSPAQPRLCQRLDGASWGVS

| bioavailability [1] | half-life [2] | bioavailability [4] | clearance [5] | EC50 [6] | half-life [7] | EC50 (Canis familiaris) | EC50 [9] | EC50 [10] | clearance [11] | Cmax [12] | fraction unbound [13] | AUC(0-t) at 24 h [15] | Cmax [17] | EC50 [18] | AUC(0-t) at 24 h [19] | SMILES | ED50 (Canis familiaris) | also measured |
| --- | --- | --- | --- | --- | --- | --- | --- | --- | --- | --- | --- | --- | --- | --- | --- | --- | --- | --- |
| 63.2% | 3.5 h | 61.5% | 16 mL/min/kg | > 1000 nM | 9.9 h | 7.8 nM | 11 nM | 1.5 nM | 6.4 mL/min/kg | 172 ng/mL | 0.23 | 461 ng·h/mL | 27 ng/mL | > 10000 nM | 548 ng·h/mL | CC(C)Oc1cc(-c2ccc(CCNC[C@H](O)c3cccnc3)cc2)ccc1C(=O)O | 0.0284 mg/kg | bioavailability [3]: 25.7%; clearance [8]: 22.8 mL/min/kg; Cmax [14]: 11 ng/mL; AUC(0-t) at 24 h [16]: 77.5 ng·h/mL; half-life [20]: 2.2 h |
| 27% | 1.9 h | 12.4% | 8.5 mL/min/kg | 150 nM | 7.6 h | 1.8 nM | 3.2 nM | 0.066 nM | 7.9 mL/min/kg | 21.9 ng/mL | 0.2 | 177 ng·h/mL | 49.1 ng/mL | 3200 nM | 208 ng·h/mL | CC(C)Cc1cc(-c2ccc(CCNC[C@H](O)c3ccc(N)nc3)cc2)ccc1C(=O)O | 0.0161 mg/kg | CLint scaled [21]: < 2 mL/min/kg; clearance [22]: 24.3 mL/min/kg; CLint scaled [23]: 2.2 mL/min/kg; bioavailability [24]: 48.6%; AUC(0-t) at 24 h [25]: 90.8 ng·h/mL; half-life [26]: 5.9 h; CLint scaled [27]: 3.8 mL/min/kg; CLint scaled [28]: < 2 mL/min/kg |
| 60% | – | – | – | 480 nM | – | – | 1.3 nM | 0.26 nM | 47.7 mL/min/kg | – | 0.1 | 58.1 ng·h/mL | 11.4 ng/mL | > 10000 nM | – | O=C(O)c1ccc(-c2ccc(CCNC[C@H](O)c3cccnc3)cc2)cc1OC1CCCCC1 | – | half-life [35]: 3.3 h; bioavailability [36]: 82.5%; half-life [37]: 10.3 h; AUC(0-t) at 24 h [38]: 245 ng·h/mL; clearance [39]: 15.8 mL/min/kg; AUC(0-t) at 24 h [40]: 153 ng·h/mL; bioavailability [41]: 10.7%; clearance [42]: 3.4 mL/min/kg; Cmax [43]: 72.4 ng/mL; Cmax [44]: 18.6 ng/mL |

| SMILES | bioavailability [1] | half-life [2] | bioavailability [4] | clearance [5] | EC50 [6] | half-life [7] | EC50 (Canis familiaris) | EC50 [9] | EC50 [10] | clearance [11] | Cmax [12] | fraction unbound [13] | AUC(0-t) at 24 h [15] | Cmax [17] | EC50 [18] | AUC(0-t) at 24 h [19] | ED50 (Canis familiaris) | also measured |
| --- | --- | --- | --- | --- | --- | --- | --- | --- | --- | --- | --- | --- | --- | --- | --- | --- | --- | --- |
| CCOc1cc(-c2ccc(C[C@@H](C)NC[C@H](O)c3ccccc3)cc2)ccc1C(=O)O | – | – | – | – | 62 nM | – | – | – | 0.31 nM | – | – | – | – | – | – | – | – | bioavailability [29]: 73%; clearance [30]: 3.5 mL/min/kg; Vd [31]: 1.9 L/kg; AUC(0-t) at 24 h [32]: 477 ng·h/mL; half-life [33]: 9.9 h; AUC(0-t) at 2 h [34]: 350 ng·h/mL |

From ChEMBL document CHEMBL1157533 (J Med Chem, 2008)
